From US8058510B2, “Method and means to modulate programmed cell death in eukaryotic cells” (Bayer Bioscience N.V., priority 1998, dated 2011)
Entries after “also recorded” stand apart in the source; their conditions may differ.

Assays:
[1] = system: differentiating cells of Zinnia or of Helianthus tuberosum; conditions: literature; cited from earlier work
[2] = system: Arabidopsis shoots (C24; Columbia); test: Fitness assay Arabidopsis (TTC-assay); type: in vivo; conditions: 2 mM niacinamide in incubation medium, about 20 hours; lines C24 and Columbia
[3] = biological target: T1, APP (Arabidopsis thaliana, UniProt Q11207); test: In situ detection of poly(ADP-ribose) polymer with 10H monoclonal antibody in yeast spheroplasts expressing APP; type: cell-based; design: The full-length app cDNA was placed in pYeDP1/8-2 under the control of a galactose-inducible yeast promoter; expressed in transfected cells; host or cells: Saccharomyces cerevisiae strain DY transformed with pV8SPA, grown on galactose; conditions: DY(pV8SPA) cells grown on galactose in the presence of the inhibitor
Description: In situ antigen localization in yeast cells was carried out as described (Harlow and Lane, 1988). For the localization of the APP protein in yeast spheroplasts, anti-APP serum was diluted 1:3,000 to 1:5,000 in Tris-buffered saline-BSA buffer. 10H monoclonal antibody, which specifically recognizes poly(ADP-ribose) polymer (Ikajima et al., 1990) was used in a 1:100 dilution in PBS buffer. The mouse antibody were detected with the sheep anti-mouse IgG F(ab′)2 fragment conjugated to fluorescein isothiocyanate (FITC) (Sigma) at a dilution of 1:200. Rabbit IgG was detected with CY-3 conjugated sheep anti-rabbit IgG sheep F(ab)2 fragment (Sigma), at a dilution of 1:200. For the visualization of DNA, slides were incubated for 1 min in PBS with 10 μg ml^−1 of 4′,6-diamidino-2-phenylindole (DAPI; Sigma). Fluorescence imaging was performed on an Axioskop epifluorescence microscope (Zeiss, Jena, Germany). For observation of FITC and CY-3 fluorochromes, 23 and 15 filter cubes were used, respectively. Cells were photographed with Fuji Color-100 super plus film.
In addition, we tested whether APP was constitutively active in yeast cells, as has been reported for the human PARP (Collinge and Althaus, 1994). […] A positive yellowish-green fluorescence signal with 10H antibody was localized in the nucleus and was observed only in DY(pV8SPA) cells grown on galactose.

[4] = system: tobacco; conditions: Puchta et al., 1995; cited from earlier work
[5] = biological target: T1, APP; test: Poly(ADP-ribose) polymerase activity assay in total protein extracts of yeast expressing APP

O=c1[nH]c2ccccc2c2ccccc12 [6(5H)-phenasthridinone]
development of tracheary elements [1]: prevent development of tracheary elements

NC(=O)c1cccnc1 [nicotinamide]
TTC-reducing capacity [2]: higher TTC-reducing capacity | development of tracheary elements [1]: prevent development of tracheary elements | positive staining with 10H antibody (poly(ADP-ribose) polymers) in the nucleus [3]: greatly reduced

NC(=O)c1cccc(N)c1 [3ABA, 3-aminobenzamide]
rates of homologous intrachromosomal recombination [4]: increased | development of tracheary elements [1]: prevent development of tracheary elements | synthesis of poly(ADP-ribose) ([5]; 3ABA 3 mM in the reaction mix, nucleic acid depleted DY(pV8SPA) extract, FIG. 5B lane 5): sensitive; also recorded: blocked | radioactivity incorporated into polymer ([5]; yeast strain grown with 3ABA (3 mM) versus without, 3ABA removed from extracts during desalting, FIG. 5A lane 1 vs 2): More radioactivity was incorporated into polymer | positive staining with 10H antibody (poly(ADP-ribose) polymers) in the nucleus [3]: greatly reduced

B1: APP: NAP protein of Arabidopsis thaliana (SEQ ID No 6), non-conventional PARP, expressed in yeast (protein, listed as Arabidopsis thaliana)
chain: MANKLKVDELRLKLAERGLSTTGVKAVLVERLEEAIAEDTKKEESKSKRKRNSSNDTYESNKLIAIGEFRGMIVKELREEAIKRGLDTTGTKKDLLERLCNDANNVSNAPVKSSNGTDEAEDDNNGFEEEKKEEKIVTATKKGAAVLDQWIPDEIKSQYHVLQRGDDVYDAILNQTNVRDNNNKFFVLQVLESDSKKTYMVYTRWGRVGVKGQSKLDGPYDSWDRAIEIFTNKFNDKTKNYWSDRKEFIPHPKSYTWLEMDYGKEENDSPVNNDIPSSSSEVKPEQSKLDTRVAKFISLICNVSMMAQHMMEIGYNANKLPLGKISKSTISKGYEVLKRISEVIDRYDRTRLEELSGEFYTVIPHDFGFKKMSQFVIDTPQKLKQKIEMVEALGEIELATKLLSVDPGLQDDPLYYHYQQLNCGLTPVGNDSEEFSMVANYMENTHAKTHSGYTVEIAQLFRASRAVEADRFQQFSSSKNRMLLWHGSRLTNWAGILSQGLRIAPPEAPVTGYMFGKGVYFADMFSKSANYCYANTGANDGVLLLCEVALGDMNELLYSDYNADNLPPGKLSTKGVGKTAPNPSEAQTLEDGVVVPLGKPVERSCSKGMLLYNEYIVYNVEQIKMRYVIQVKFNYKH
radioactivity incorporated into poly(ADP-ribose), 40 μg/ml DNA versus 2 μg/ml DNA ([5]; sonicated salmon sperm DNA, phosphor-image scanning, FIG. 5B lanes 4 and 2): ~6 fold
